# Results from ChEMBL document CHEMBL1287680, “C-11 diamino cryptolepine derivatives NSC748392, NSC748393, and NSC748394: anticancer profile and G-quadruplex stabilization” (Bioorg Med Chem Lett, 2010).
# How the values were obtained:
# [1] = system: Nucleic Acid; details: Homo sapiens
# Description: Binding affinity to human duplex DNA assessed as change in melting temperature by FRET-melting assay
# [2] = system: K562; assay: cells; details: Homo sapiens
# Description: Anticancer activity against human K562 cells
# [3] = system: NCI-H23; assay: cells; details: Homo sapiens
# Description: Anticancer activity against human NCI-H23 cells
# [4] = system: KM12; assay: cells; details: Homo sapiens
# Description: Anticancer activity against human KM12 cells
# [5] = system: Malme-3M; assay: cells; details: Homo sapiens
# Description: Anticancer activity against human MALME-3M cells
# [6] = system: HOP-62; assay: cells; details: Homo sapiens
# Description: Anticancer activity against human HOP62 cells
# [7] = system: SW-620; assay: cells; details: Homo sapiens
# Description: Anticancer activity against human SW620 cells
# [8] = system: NCI-H522; assay: cells; details: Homo sapiens
# Description: Anticancer activity against human NCI-H522 cells
# [9] = system: CAKI-1; assay: cells; details: Homo sapiens
# Description: Anticancer activity against human Caki1 cells
# [10] = system: UO-31; assay: cells; details: Homo sapiens
# Description: Anticancer activity against human UO31 cells
# [11] = system: DU-145; assay: cells; details: Homo sapiens
# Description: Anticancer activity against human DU145 cells
# [12] = system: SK-MEL-5; assay: cells; details: Homo sapiens
# Description: Anticancer activity against human SK-MEL-5 cells
# [13] = system: SK-OV-3; assay: cells; details: Homo sapiens
# Description: Anticancer activity against human SKOV3 cells
# [14] = system: SNB-19; assay: cells; details: Homo sapiens
# Description: Anticancer activity against human SNB19 cells
# [15] = system: ACHN; assay: cells; details: Homo sapiens
# Description: Anticancer activity against human ACHN cells
# [16] = system: PC-3; assay: cells; details: Homo sapiens
# Description: Anticancer activity against human PC3 cells
# [17] = system: SN12C; assay: cells; details: Homo sapiens
# Description: Anticancer activity against human SN12C cells
# [18] = system: MOLT-4; assay: cells; details: Homo sapiens
# Description: Anticancer activity against human MOLT4 cells
# [19] = system: HCC 2998; assay: cells; details: Homo sapiens
# Description: Anticancer activity against human HCC2998 cells
# [20] = system: MCF7; assay: cells; details: Homo sapiens
# Description: Anticancer activity against human MCF7 cells
# [21] = system: MDA-MB-231; assay: cells; details: Homo sapiens
# Description: Anticancer activity against human MDA-MB-231 cells
# [22] = system: Vero; assay: cells; details: Chlorocebus sabaeus, 48 h
# Description: Cytotoxicity against african green monkey Vero cells after 48 hrs by MTT assay
# [23] = system: HCT-15; assay: cells; details: Homo sapiens
# Description: Anticancer activity against human HCT15 cells
# [24] = system: OVCAR-5; assay: cells; details: Homo sapiens
# Description: Anticancer activity against human OVCAR5 cells
# [25] = system: BT-549; assay: cells; details: Homo sapiens
# Description: Anticancer activity against human BT549 cells
# [26] = system: T47D; assay: cells; details: Homo sapiens
# Description: Anticancer activity against human T47D cells
# [27] = system: OVCAR-3; assay: cells; details: Homo sapiens
# Description: Anticancer activity against human OVCAR-3 cells
# [28] = system: NCI-H322M; assay: cells; details: Homo sapiens
# Description: Anticancer activity against human NCI-H322M cells
# [29] = system: OVCAR-8; assay: cells; details: Homo sapiens
# Description: Anticancer activity against human OVCAR8 cells
# [30] = system: UACC-257; assay: cells; details: Homo sapiens
# Description: Anticancer activity against human UACC257 cells
# [31] = system: HL-60(TB); assay: cells; details: Homo sapiens
# Description: Anticancer activity against human HL-60(TB) cells
# [32] = system: SK-MEL-28; assay: cells; details: Homo sapiens
# Description: Anticancer activity against human SK-MEL-28 cells
# [33] = system: HOP-92; assay: cells; details: Homo sapiens
# Description: Anticancer activity against human HOP92 cells
# [34] = in vivo; details: mouse, cancer cell lines
# Description: Toxicity in cancer cells containing hollow fiber implanted mouse
smiles,measurement,setting,value
C[n+]1c2ccccc2c(NC2CCNCC2)c2[nH]c3ccccc3c21.[Cl-],ΔTm,[1],15.1 °C
same,GI50,"[2]; K562, read-out: pGI50 (converted)",0.295 µM
same,CC50,"[2]; K562, read-out: pLC50 (converted)",> 100 µM
same,GI50,"[3]; NCI-H23, read-out: pGI50 (converted)",0.0589 µM
same,CC50,"[3]; NCI-H23, read-out: pLC50 (converted)",10.2 µM
same,TGI,"[3]; NCI-H23, read-out: pTGI",0.646 µM
same,GI50,"[4]; KM12, read-out: pGI50 (converted)",0.708 µM
same,CC50,"[4]; KM12, read-out: pLC50 (converted)",> 100 µM
same,TGI,"[4]; KM12, read-out: pTGI",10 µM
same,GI50,[5]; read-out: pGI50 (converted),1.55 µM
same,CC50,[5]; read-out: pLC50 (converted),20 µM
same,TGI,[5]; read-out: pTGI,4.37 µM
same,GI50,"[6]; HOP-62, read-out: pGI50 (converted)",0.525 µM
same,CC50,"[6]; HOP-62, read-out: pLC50 (converted)",30.9 µM
same,TGI,"[6]; HOP-62, read-out: pTGI",5.62 µM
same,GI50,"[7]; SW-620, read-out: pGI50 (converted)",1.45 µM
same,CC50,"[7]; SW-620, read-out: pLC50 (converted)",> 100 µM
same,TGI,"[7]; SW-620, read-out: pTGI",10.7 µM
same,GI50,"[8]; NCI-H522, read-out: pGI50 (converted)",0.123 µM
same,CC50,"[8]; NCI-H522, read-out: pLC50 (converted)",3.31 µM
same,TGI,"[8]; NCI-H522, read-out: pTGI",0.692 µM
same,GI50,"[9]; CAKI-1, read-out: pGI50 (converted)",15.1 µM
same,CC50,"[9]; CAKI-1, read-out: pLC50 (converted)",> 100 µM
same,TGI,"[9]; CAKI-1, read-out: pTGI",60.3 µM
same,GI50,"[10]; UO-31, read-out: pGI50 (converted)",13.2 µM
same,CC50,"[10]; UO-31, read-out: pLC50 (converted)",> 100 µM
same,TGI,"[10]; UO-31, read-out: pTGI",46.8 µM
same,GI50,"[11]; DU-145, read-out: pGI50 (converted)",0.204 µM
same,CC50,"[11]; DU-145, read-out: pLC50 (converted)",> 100 µM
same,TGI,"[11]; DU-145, read-out: pTGI",10.2 µM
same,GI50,"[12]; SK-MEL-5, read-out: pGI50 (converted)",0.302 µM
same,CC50,"[12]; SK-MEL-5, read-out: pLC50 (converted)",4.68 µM
same,TGI,"[12]; SK-MEL-5, read-out: pTGI",1.32 µM
same,GI50,"[13]; SK-OV-3, read-out: pGI50 (converted)",0.447 µM
same,CC50,"[13]; SK-OV-3, read-out: pLC50 (converted)",77.6 µM
same,TGI,"[13]; SK-OV-3, read-out: pTGI",3.89 µM
same,GI50,"[14]; SNB-19, read-out: pGI50 (converted)",0.275 µM
same,CC50,"[14]; SNB-19, read-out: pLC50 (converted)",> 100 µM
same,TGI,"[14]; SNB-19, read-out: pTGI",2.57 µM
same,GI50,[15]; read-out: pGI50 (converted),11.5 µM
same,CC50,[15]; read-out: pLC50 (converted),> 100 µM
same,TGI,[15]; read-out: pTGI,64.6 µM
same,GI50,"[16]; PC-3, read-out: pGI50 (converted)",1.95 µM
same,CC50,"[16]; PC-3, read-out: pLC50 (converted)",97.7 µM
same,TGI,"[16]; PC-3, read-out: pTGI",10.5 µM
same,GI50,[17]; read-out: pGI50 (converted),0.0295 µM
same,CC50,[17]; read-out: pLC50 (converted),> 100 µM
same,TGI,[17]; read-out: pTGI,0.316 µM
same,GI50,"[18]; MOLT-4, read-out: pGI50 (converted)",0.138 µM
same,CC50,"[18]; MOLT-4, read-out: pLC50 (converted)",> 100 µM
same,TGI,"[18]; MOLT-4, read-out: pTGI",> 100 µM
same,GI50,"[19]; HCC 2998, read-out: pGI50 (converted)",0.324 µM
same,CC50,"[19]; HCC 2998, read-out: pLC50 (converted)",5.25 µM
same,TGI,"[19]; HCC 2998, read-out: pTGI",1.7 µM
same,GI50,"[20]; MCF7, read-out: pGI50 (converted)",0.224 µM
same,CC50,"[20]; MCF7, read-out: pLC50 (converted)",> 100 µM
same,TGI,"[20]; MCF7, read-out: pTGI",2.14 µM
same,GI50,"[21]; MDA-MB-231, read-out: pGI50 (converted)",1.1 µM
same,CC50,"[21]; MDA-MB-231, read-out: pLC50 (converted)",52.5 µM
same,TGI,"[21]; MDA-MB-231, read-out: pTGI",9.77 µM
same,IC50,[22],10 µM
same,GI50,"[23]; HCT-15, read-out: pGI50 (converted)",23.4 µM
same,CC50,"[23]; HCT-15, read-out: pLC50 (converted)",> 100 µM
same,TGI,"[23]; HCT-15, read-out: pTGI",> 100 µM
same,GI50,"[24]; OVCAR-5, read-out: pGI50 (converted)",1.66 µM
same,CC50,"[24]; OVCAR-5, read-out: pLC50 (converted)",> 100 µM
same,TGI,"[24]; OVCAR-5, read-out: pTGI",17 µM
same,GI50,"[25]; BT-549, read-out: pGI50 (converted)",2.75 µM
same,CC50,"[25]; BT-549, read-out: pLC50 (converted)",57.5 µM
same,TGI,"[25]; BT-549, read-out: pTGI",16.6 µM
same,GI50,[26]; read-out: pGI50 (converted),0.234 µM
same,CC50,[26]; read-out: pLC50 (converted),> 100 µM
same,TGI,[26]; read-out: pTGI,2.34 µM
same,GI50,"[27]; OVCAR-3, read-out: pGI50 (converted)",1.45 µM
same,CC50,"[27]; OVCAR-3, read-out: pLC50 (converted)",95.5 µM
same,TGI,"[27]; OVCAR-3, read-out: pTGI",9.55 µM
same,GI50,[28]; read-out: pGI50 (converted),0.372 µM
same,CC50,[28]; read-out: pLC50 (converted),> 100 µM
same,TGI,[28]; read-out: pTGI,12 µM
same,GI50,"[29]; OVCAR-8, read-out: pGI50 (converted)",1.74 µM
same,CC50,"[29]; OVCAR-8, read-out: pLC50 (converted)",45.7 µM
same,TGI,"[29]; OVCAR-8, read-out: pTGI",12.3 µM
same,GI50,"[30]; UACC-257, read-out: pGI50 (converted)",5.37 µM
same,CC50,"[30]; UACC-257, read-out: pLC50 (converted)",81.3 µM
same,TGI,"[30]; UACC-257, read-out: pTGI",24 µM
same,GI50,"[31]; HL-60, read-out: pGI50 (converted)",2.19 µM
same,CC50,"[31]; HL-60, read-out: pLC50 (converted)",> 100 µM
same,TGI,"[31]; HL-60, read-out: pTGI",> 100 µM
same,GI50,"[32]; SK-MEL-28, read-out: pGI50 (converted)",1.05 µM
same,CC50,"[32]; SK-MEL-28, read-out: pLC50 (converted)",10.5 µM
same,TGI,"[32]; SK-MEL-28, read-out: pTGI",3.24 µM
same,GI50,"[33]; HOP-92, read-out: pGI50 (converted)",1.15 µM
same,CC50,"[33]; HOP-92, read-out: pLC50 (converted)",> 100 µM
same,TGI,"[33]; HOP-92, read-out: pTGI",6.92 µM
same,MTD,[34],25 mg/kg
